Measured values reported in PMC6017932, “Synthesis of Selenium-Quinone Hybrid Compounds with Potential Antitumor Activity via Rh-Catalyzed C-H Bond Activation and Click Reactions” (Molecules : A Journal of Synthetic Chemistry and Natural …, 2017).

Tests used:
[1] = tested on: HCT-116 (human colon carcinoma cells); assay: MTT cytotoxicity, HCT-116 cells; format: cell-based; conditions: Homo sapiens, HCT-116, 72 h exposure, three independent experiments, read-out: Cytotoxic activity IC50 (95% CI) HCT-116
Description: (§1) Compounds were evaluated for antitumor activity in cell culture in vitro using several human cancer cell lines obtained from the National Cancer Institute, NCI (Bethesda, MD, USA). […] The L929 cells were cultivated under standard conditions in DMEM with Earle’s salts. […] At the end of the incubation time (72 h), the plates were centrifuged and the medium was replaced by fresh medium (200 μL) containing 0.5 mg/mL MTT. After 3 h, the MTT formazan product was dissolved in DMSO (150 μL) and the absorbance was measured using a multiplate reader (Spectra Count, Packard, ON, Canada). The impact of compounds on cell proliferation was quantified as the percentage of control absorbance of the reduced dye at 550 nm. All cell culture based studies were performed in triplicate. All cells were mycoplasma-free.

[2] = tested on: NCIH-460 (human lung cells); assay: MTT cytotoxicity, NCIH-460 cells; format: cell-based; conditions: Homo sapiens, NCI-H460, 72 h exposure, three independent experiments, read-out: Cytotoxic activity IC50 (95% CI) NCIH-460
Description: as §1

[3] = tested on: PC3 (human prostate cancer cells); assay: MTT cytotoxicity, PC3 cells; format: cell-based; conditions: Homo sapiens, PC-3, 72 h exposure, three independent experiments, read-out: Cytotoxic activity IC50 (95% CI) PC3
Description: as §1

[4] = tested on: HL-60 (human promyelocytic leukemia cells); assay: MTT cytotoxicity, HL-60 cells; format: cell-based; conditions: Homo sapiens, HL-60, 72 h exposure, three independent experiments, read-out: Cytotoxic activity IC50 (95% CI) HL-60
Description: as §1

[5] = MTT cytotoxicity, L929 normal cells; format: cell-based, mouse; conditions: mouse, normal cell line, 72 h exposure, three independent experiments, read-out: Cytotoxic activity IC50 (95% CI) L929
Description: as §1

[6] = tested on: SF295 (human glioblastoma cells); assay: MTT cytotoxicity, SF295 cells; format: cell-based; conditions: Homo sapiens, SF-295, 72 h exposure, three independent experiments, read-out: Cytotoxic activity IC50 (95% CI) SF295
Description: as §1

For `COC1=C(CN=[N+]=[N-])C(=O)c2ccccc2C1=O` [Compound 8, 2-(Azidomethyl)-3-methoxynaphthalene-1,4-dione], which IC50 [1] is on record?
Its IC50 is > 10000 nM.

And the IC50 [2]?
Its IC50 is > 10000 nM.

And the IC50 [3]?
Its IC50 is > 10000 nM.

What about the IC50 [4] of the same molecule?
Its IC50 is > 10000 nM.

What about the IC50 at 72 h [5] of the same molecule?
The IC50 at 72 h was > 10000 nM.

What about the IC50 [6] of the same molecule?
The IC50 was > 10000 nM.

Which IC50 [1] does the source give for `O=C1C=C([Se]c2ccccc2)C(=O)c2ccccc21` [Compound 2, 2-(Phenylselanyl)naphthalene-1,4-dione] here?
Its IC50 is > 10000 nM.

What about the IC50 [2] of the same molecule?
The IC50 was > 10000 nM.

And the IC50 [3]?
The IC50 was > 10000 nM.

What about the IC50 [4] of the same molecule?
The IC50 was 1960 nM.

And the IC50 at 72 h [5]?
The IC50 at 72 h was > 10000 nM.

What about the IC50 [6] of the same molecule?
Its IC50 is > 10000 nM.

With `COC1=C(Cn2cc(-c3ccc(Br)cc3)nn2)C(=O)c2ccccc2C1=O` [Compound 13, 2-((4-(4-Bromophenyl)-1H-1,2,3-triazol-1-yl)methyl)-3-methoxynaphthalene-1,4-dione] as the molecule, how does the IC50 [1] read?
Its IC50 is > 10000 nM.

And the IC50 [2]?
Its IC50 is > 10000 nM.

And the IC50 [3]?
Its IC50 is > 10000 nM.

And the melting point?
The melting point was 174.1 to 175 °C.

What about the IC50 [4] of the same molecule?
Its IC50 is > 10000 nM.

What about the IC50 at 72 h [5] of the same molecule?
Its IC50 at 72 h is > 10000 nM.

And the IC50 [6]?
The IC50 was > 10000 nM.

Which IC50 [1] does the source give for `COc1ccc([Se]Cc2cn(C3C4=C(OC(C)(C)C3Br)c3ccccc3C(=O)C4=O)nn2)cc1` (stereo not drawn) [Compound 19, 3-Bromo-4-(4-(((4-methoxyphenyl)selanyl)methyl)-1H-1,2,3-triazol-1-yl)-2,2-dimethyl-3,4-dihydro-2H-benzo[h]chromene-5,6-dione] here?
The IC50 was > 8000 nM.

And the IC50 [2]?
Its IC50 is 2330 nM.

And the IC50 [3]?
The IC50 was 1550 nM.

And the melting point?
Its melting point is 113.5 to 114.6 °C.

And the IC50 [4]?
The IC50 was 1280 nM.

What about the IC50 at 72 h [5] of the same molecule?
The IC50 at 72 h was 680 nM.

And the IC50 [6]?
The IC50 was 1750 nM.

What does the source list for `CC1(C)OC2=C(C(=O)C(=O)c3ccccc32)C(n2cc(C[Se]c3ccc(Cl)cc3)nn2)C1Br` (stereo not drawn) [Compound 17, 3-Bromo-4-(4-(((4-chlorophenyl)selanyl)methyl)-1H-1,2,3-triazol-1-yl)-2,2-dimethyl-3,4-dihydro-2H-benzo[h]chromene-5,6-dione]?
IC50 [1]: > 8000 nM; IC50 [2]: 2060 nM; IC50 [3]: 2030 nM; melting point: 185.3 to 187.1 °C; IC50 [4]: 810 nM; IC50 at 72 h [5]: 520 nM; IC50 [6]: 2600 nM

Which IC50 [1] does the source give for `CCCC[Se]Cc1cn(C2C3=C(OC(C)(C)C2Br)c2ccccc2C(=O)C3=O)nn1` (stereo not drawn) [Compound 23, 3-Bromo-4-(4-((butylselanyl)methyl)-1H-1,2,3-triazol-1-yl)-2,2-dimethyl-3,4-dihydro-2H-benzo[h]chromene-5,6-dione] here?
The IC50 was 970 nM.

And the IC50 [2]?
Its IC50 is 2640 nM.

What about the IC50 [3] of the same molecule?
Its IC50 is 1640 nM.

What about the melting point of the same molecule?
Its melting point is 123.1 to 124.4 °C.

And the IC50 [4]?
Its IC50 is 710 nM.

And the IC50 at 72 h [5]?
The IC50 at 72 h was 2120 nM.

What about the IC50 [6] of the same molecule?
Its IC50 is 3430 nM.

For `CC1(C)OC2=C(C(=O)C(=O)c3ccccc32)C(n2cc(C[Se]c3cccs3)nn2)C1Br` (stereo not drawn) [Compound 22, 3-Bromo-2,2-dimethyl-4-(4-((thiophen-2-ylselanyl)methyl)-1H-1,2,3-triazol-1-yl)-3,4-dihydro-2H-benzo[h]chromene-5,6-dione], which IC50 [1] is on record?
The IC50 was > 8000 nM.

What about the IC50 [2] of the same molecule?
The IC50 was 2750 nM.

What about the IC50 [3] of the same molecule?
Its IC50 is 2470 nM.

What about the melting point of the same molecule?
The melting point was 104.3 to 108.6 °C.

What about the IC50 [4] of the same molecule?
Its IC50 is 530 nM.

What about the IC50 at 72 h [5] of the same molecule?
The IC50 at 72 h was 3160 nM.

What about the IC50 [6] of the same molecule?
The IC50 was 2130 nM.

Which IC50 [1] does the source give for `COc1cccc2c1C(=O)c1c(O)c3c(c(O)c1C2=O)C[C@@](O)(C(=O)CO)C[C@@H]3O[C@H]1C[C@H](N)[C@H](O)[C@H](C)O1` [DOXO, Doxorubicin, reference compound] here?
Its IC50 is 210 nM.

What about the IC50 [3] of the same molecule?
The IC50 was 760 nM.

What about the IC50 [4] of the same molecule?
The IC50 was 20 nM.

What about the IC50 at 72 h [5] of the same molecule?
The IC50 at 72 h was 1720 nM.

Which IC50 [1] does the source give for `COC1=C(Cn2cc(C[Se]c3ccc(OC)cc3)nn2)C(=O)c2ccccc2C1=O` [Compound 15, 2-Methoxy-3-((4-(((4-methoxyphenyl)selanyl)methyl)-1H-1,2,3-triazol-1-yl)methyl)naphthalene-1,4-dione] here?
The IC50 was > 10000 nM.

And the IC50 [2]?
Its IC50 is > 10000 nM.

And the IC50 [3]?
The IC50 was > 10000 nM.

And the IC50 [4]?
The IC50 was > 10000 nM.

What about the IC50 at 72 h [5] of the same molecule?
The IC50 at 72 h was > 10000 nM.

What about the IC50 [6] of the same molecule?
Its IC50 is > 10000 nM.
